Reference: US20060216336A1, “Transdermal therapeutic system for Parkinson's Disease” (priority 2002, published 2006)

Experiment: Multiple dose trial with rotating patch application sites in early-stage Parkinson's disease: rotigotine pharmacokinetics (Example 4)
Excerpt: Each day, a fresh patch was placed on a new skin site (abdomen, flank, upper arm, shoulder, thigh, hip) in a rotating order. The silicone transdermal patches were made in accordance with the teachings of U.S. Patent Application Publication No. US 2003/0026830 at paragraphs 38-42, U.S. Patent Application Publication No. US 2003/0027793 at paragraphs 37-41 and U.S. Pat. No. 6,884,434, columns 5-6, Example 2 and comprised the following layers and components:
The trial consisted of an Eligibility Assessment (EA), a 24-day Titration Phase (4.5 to 18.0 mg/day doses; incremental increases of 4.5mg/day every 6 days), a 6-day Maintenance Phase (18.0 mg/day dose), a 6-day De-escalation Phase (13.5/9.0/4.5mg/day decreasing dose every 2 days), and a Safety Follow-Up visit 2 days following the last dose.
The silicone transdermal patches were made in accordance with the teachings of U.S. Patent Application Publication No. US 2003/0026830 at paragraphs 3842 and U.S. Patent Application Publication No. US 2003/0027793 at paragraphs 3741 comprised the following layers and components as disclosed above
The 18.0 mg/day dose used 2×20 cm^2 patches. Initial doses were 4.5 mg/day with weekly increases of 4.5 mg/day to a maximum target dose of 18.0 mg/day.

[1] = application site Abdomen, normalized for body weight and apparent dose, Day 27 and Day 30 combined (PKS)
[2] = application site Flank, normalized for body weight and apparent dose, Day 27 and Day 30 combined (PKS)
[3] = application site Hip, normalized for body weight and apparent dose, Day 27 and Day 30 combined (PKS)
[4] = application site Shoulder, normalized for body weight and apparent dose, Day 27 and Day 30 combined (PKS)
[5] = application site Thigh, normalized for body weight and apparent dose, Day 27 and Day 30 combined (PKS)
[6] = application site Upper arm, normalized for body weight and apparent dose, Day 27 and Day 30 combined (PKS)

For `CCCN(CCc1cccs1)[C@H]1CCc2c(O)cccc2C1` [rotigotine, (6S)-6{propyl[2-(2-thienyl)ethyl]amino}-5,6,7,8-tetrahydro-1-naphthalenol], the “Time to Maximum Concentration” value (Day 30, site F (flank), Geo. Mean) was 15.43 h, the “Time to Maximum Concentration” value (Days 27 and 30 combined, site UA (upper arm), Mean) was 12.71 h and the “AUC0-t,ss,normalized, Range” value [1] was 89.3 to 952.1 ng·kg·h/mL/mg. For the same compound, the “Cmax,ss, normalized, Geometric mean (SD)” value [1] was 16.367 (1.6473) ng * kg/mL/mg, the “Cmax,ss, normalized, Median” value [1] was 14.906 ng·kg/mL/mg and the “Cmax,ss, normalized, Geometric mean (SD)” value [2] was 17.168 (1.5894) ng * kg/mL/mg. For the same compound, the “Cmax,ss, normalized, Mean” value [2] was 18.976 ng·kg/mL/mg, the “Cmax,ss, normalized, Median” value [2] was 16.666 ng·kg/mL/mg and the “Cmax,ss, normalized, Geometric mean (SD)” value [3] was 17.253 (1.6685) ng * kg/mL/mg. The “Cmax,ss, normalized, Mean” value [3] was 19.956 ng·kg/mL/mg, the “Cmax,ss, normalized, Median” value [3] was 15.577 ng·kg/mL/mg and the “Cmax,ss, normalized, Geometric mean (SD)” value [4] was 14.499 (1.5627) ng * kg/mL/mg. The “Cmax,ss, normalized, Mean” value [4] was 15.898 ng·kg/mL/mg, the “Cmax,ss, normalized, Median” value [4] was 15.328 ng·kg/mL/mg and the “Cmax,ss, normalized, Geometric mean (SD)” value [5] was 16.046 (1.5548) ng * kg/mL/mg. For the same compound, the “Cmax,ss, normalized, Mean” value [5] was 17.793 ng·kg/mL/mg, the “Cmax,ss, normalized, Median” value [5] was 15.506 ng·kg/mL/mg and the “Cmax,ss, normalized, Geometric mean (SD)” value [6] was 16.508 (1.4597) ng * kg/mL/mg. The “Cmax,ss, normalized, Mean” value [6] was 17.727 ng·kg/mL/mg, the “Cmax,ss, normalized, Median” value [6] was 15.499 ng·kg/mL/mg and the “plasma concentration at Time 0 (Ctrough)” value (human, in vivo) was “about 1 ng/mL”. It also gave a concentration at 30 day (human, in vivo, 18 mg/day, Average Concentration, Day 30, site UA (upper arm), Median) of 0.895 ng/mL, a concentration at […] (human, in vivo, 18 mg/day, rotigotine plasma concentration Geo. Mean, Hip, Day 27, 23.5 H) of 0.875 ng/mL and a concentration at […] (human, in vivo, 18 mg/day, rotigotine plasma concentration Geo. Mean, Hip, Day 30, 23.5 H) of 0.758 ng/mL. The concentration at […] (human, in vivo, 18 mg/day, rotigotine plasma concentration Geo. Mean, Shoulder, Day 30, 23.5 H) was 0.851 ng/mL, the concentration at […] (human, in vivo, 18 mg/day, rotigotine plasma concentration Geo. Mean, Shoulder, Days 27 & 30 Combined, 23.5 H) was 0.82 ng/mL and the concentration at […] (human, in vivo, 18 mg/day, rotigotine plasma concentration Geo. Mean, Thigh, Day 30, 23.5 H) was 0.656 ng/mL. The concentration at 18 h (human, in vivo, 18 mg/day, rotigotine plasma concentration Geo. Mean, Thigh, Days 27 & 30 Combined, 18 H) was 0.895 ng/mL, the concentration at […] (human, in vivo, 18 mg/day, rotigotine plasma concentration Geo. Mean, Thigh, Days 27 & 30 Combined, 23.5 H) was 0.639 ng/mL and the concentration at […] (human, in vivo, 18 mg/day, rotigotine plasma concentration Geo. Mean, Upper Arm, Day 30, 23.5 H) was 0.833 ng/mL. The concentration at […] (human, in vivo, 18 mg/day, rotigotine plasma concentration Geo. Mean, Upper Arm, Days 27 & 30 Combined, 23.5 H) was 0.789 ng/mL, the concentration at […] (human, in vivo, 18 mg/day, rotigotine plasma concentration Max, Hip, Day 27, 23.5 H) was 1.75 ng/mL and the concentration at […] (human, in vivo, 18 mg/day, rotigotine plasma concentration Max, Hip, Day 30, 23.5 H) was 1.35 ng/mL. It also gave a concentration at […] (human, in vivo, 18 mg/day, rotigotine plasma concentration Max, Hip, Days 27 & 30 Combined, 23.5 H) of 1.75 ng/mL, a concentration at […] (human, in vivo, 18 mg/day, rotigotine plasma concentration Max, Shoulder, Day 30, 23.5 H) of 3.01 ng/mL and a concentration at […] (human, in vivo, 18 mg/day, rotigotine plasma concentration Max, Shoulder, Days 27 & 30 Combined, 23.5 H) of 3.01 ng/mL. For the same compound, the concentration at […] (human, in vivo, 18 mg/day, rotigotine plasma concentration Max, Thigh, Day 30, 23.5 H) was 1.59 ng/mL, the concentration at […] (human, in vivo, 18 mg/day, rotigotine plasma concentration Max, Thigh, Days 27 & 30 Combined, 23.5 H) was 1.59 ng/mL and the concentration at […] (human, in vivo, 18 mg/day, rotigotine plasma concentration Max, Upper Arm, Day 27, 23.5 H) was 1.88 ng/mL. For the same compound, the concentration at […] (human, in vivo, 18 mg/day, rotigotine plasma concentration Max, Upper Arm, Day 30, 23.5 H) was 1.67 ng/mL, the concentration at […] (human, in vivo, 18 mg/day, rotigotine plasma concentration Max, Upper Arm, Days 27 & 30 Combined, 23.5 H) was 1.88 ng/mL and the concentration at […] (human, in vivo, 18 mg/day, rotigotine plasma concentration Mean, Hip, Day 27, 23.5 H) was 0.96 ng/mL. For the same compound, the concentration at […] (human, in vivo, 18 mg/day, rotigotine plasma concentration Mean, Hip, Day 30, 23.5 H) was 0.82 ng/mL, the concentration at […] (human, in vivo, 18 mg/day, rotigotine plasma concentration Mean, Hip, Days 27 & 30 Combined, 23.5 H) was 0.89 ng/mL and the concentration at […] (human, in vivo, 18 mg/day, rotigotine plasma concentration Mean, Shoulder, Day 30, 23.5 H) was 1.02 ng/mL. It also gave a concentration at […] (human, in vivo, 18 mg/day, rotigotine plasma concentration Mean, Shoulder, Days 27 & 30 Combined, 23.5 H) of 0.966 ng/mL, a concentration at […] (human, in vivo, 18 mg/day, rotigotine plasma concentration Mean, Thigh, Day 30, 23.5 H) of 0.784 ng/mL and a concentration at […] (human, in vivo, 18 mg/day, rotigotine plasma concentration Mean, Thigh, Days 27 & 30 Combined, 23.5 H) of 0.735 ng/mL. It also gave a concentration at […] (human, in vivo, 18 mg/day, rotigotine plasma concentration Mean, Upper Arm, Day 27, 23.5 H) of 0.936 ng/mL, a concentration at […] (human, in vivo, 18 mg/day, rotigotine plasma concentration Mean, Upper Arm, Day 30, 23.5 H) of 0.924 ng/mL and a concentration at […] (human, in vivo, 18 mg/day, rotigotine plasma concentration Mean, Upper Arm, Days 27 & 30 Combined, 23.5 H) of 0.93 ng/mL. It also gave a concentration at […] (human, in vivo, 18 mg/day, rotigotine plasma concentration Median, Hip, Day 27, 23.5 H) of 0.957 ng/mL, a concentration at […] (human, in vivo, 18 mg/day, rotigotine plasma concentration Median, Hip, Day 30, 23.5 H) of 0.692 ng/mL and a concentration at […] (human, in vivo, 18 mg/day, rotigotine plasma concentration Median, Shoulder, Day 30, 23.5 H) of 0.848 ng/mL. For the same compound, the concentration at […] (human, in vivo, 18 mg/day, rotigotine plasma concentration Median, Shoulder, Days 27 & 30 Combined, 23.5 H) was 0.799 ng/mL, the concentration at […] (human, in vivo, 18 mg/day, rotigotine plasma concentration Median, Thigh, Day 30, 23.5 H) was 0.68 ng/mL and the concentration at […] (human, in vivo, 18 mg/day, rotigotine plasma concentration Median, Thigh, Days 27 & 30 Combined, 23.5 H) was 0.668 ng/mL. The concentration at […] (human, in vivo, 18 mg/day, rotigotine plasma concentration Median, Upper Arm, Day 30, 23.5 H) was 0.899 ng/mL, the concentration at […] (human, in vivo, 18 mg/day, rotigotine plasma concentration Median, Upper Arm, Days 27 & 30 Combined, 23.5 H) was 0.899 ng/mL and the concentration at […] (human, in vivo, 18 mg/day, rotigotine plasma concentration Min, Hip, Day 27, 23.5 H) was 0.261 ng/mL. It also gave a concentration at […] (human, in vivo, 18 mg/day, rotigotine plasma concentration Min, Hip, Day 30, 23.5 H) of 0.461 ng/mL, a concentration at […] (human, in vivo, 18 mg/day, rotigotine plasma concentration Min, Hip, Days 27 & 30 Combined, 23.5 H) of 0.261 ng/mL and a concentration at […] (human, in vivo, 18 mg/day, rotigotine plasma concentration Min, Shoulder, Day 30, 23.5 H) of 0.405 ng/mL. For the same compound, the concentration at […] (human, in vivo, 18 mg/day, rotigotine plasma concentration Min, Shoulder, Days 27 & 30 Combined, 23.5 H) was 0.387 ng/mL, the concentration at […] (human, in vivo, 18 mg/day, rotigotine plasma concentration Min, Thigh, Day 30, 23.5 H) was 0.152 ng/mL and the concentration at […] (human, in vivo, 18 mg/day, rotigotine plasma concentration Min, Thigh, Days 27 & 30 Combined, 23.5 H) was 0.152 ng/mL.
